Measurements taken from the NIST ThermoML archive (doi:10.1016/j.jct.2012.05.014).
Numbers after ± are expanded uncertainties.

Assay: xn = mol fraction of the nth substance listed
Conditions: Fluid (supercritical or subcritical phases), Gravimetric method

CCCCCCNC(=O)C(=O)NCCCCCC [N1,N2-dihexyloxalamide] + O=C=O
Conditions	mass density [kg/m3]
313 K, 9100 kPa, x1 = 0.000112	517.19 ± 0.12
313 K, 9500 kPa, x1 = 0.0002518	584.52 ± 0.14
313 K, 9800 kPa, x1 = 0.000392	615.65 ± 0.15
313 K, 10100 kPa, x1 = 0.0005214	638.82 ± 0.15
313 K, 10400 kPa, x1 = 0.0006463	657.22 ± 0.16
323 K, 10700 kPa, x1 = 0.0001583	472.58 ± 0.11
323 K, 11100 kPa, x1 = 0.0003041	515.81 ± 0.12
323 K, 11400 kPa, x1 = 0.0004264	543.31 ± 0.13
323 K, 11700 kPa, x1 = 0.0005407	566.85 ± 0.14
323 K, 12000 kPa, x1 = 0.0006537	587.07 ± 0.14
333 K, 11900 kPa, x1 = 0.0002196	428.55 ± 0.1
333 K, 12300 kPa, x1 = 0.0003629	458.89 ± 0.11
333 K, 12600 kPa, x1 = 0.0004822	480.5 ± 0.12
333 K, 12900 kPa, x1 = 0.0006024	500.8 ± 0.12
333 K, 13200 kPa, x1 = 0.0007245	519.67 ± 0.12
343 K, 12500 kPa, x1 = 0.000277	374.67 ± 0.09
343 K, 12900 kPa, x1 = 0.0003827	397.3 ± 0.1
343 K, 13200 kPa, x1 = 0.0004661	414.22 ± 0.1
343 K, 13500 kPa, x1 = 0.00056	430.94 ± 0.1
343 K, 13700 kPa, x1 = 0.0006445	441.9 ± 0.11
353 K, 12800 kPa, x1 = 0.0003133	331.22 ± 0.08
353 K, 13300 kPa, x1 = 0.0004305	353.15 ± 0.08
353 K, 13700 kPa, x1 = 0.0005336	370.9 ± 0.09
353 K, 14000 kPa, x1 = 0.0006155	384.26 ± 0.09
353 K, 14300 kPa, x1 = 0.0007224	397.58 ± 0.1

CCCCCCCCNC(=O)C(=O)NCCCCCCCC [N1,N2-dioctyloxalamide] + O=C=O
Conditions	mass density [kg/m3]
313 K, 11700 kPa, x1 = 0.0001449	710.44 ± 32
313 K, 12000 kPa, x1 = 0.0001679	719.38 ± 14
313 K, 12500 kPa, x1 = 0.0002108	732.67 ± 40
313 K, 13000 kPa, x1 = 0.00025	744.41 ± 12
313 K, 13400 kPa, x1 = 0.000284	752.9 ± 6
323 K, 12300 kPa, x1 = 0.0001146	604.62 ± 11
323 K, 12900 kPa, x1 = 0.0001562	633.72 ± 3.9
323 K, 13400 kPa, x1 = 0.000212	653.57 ± 3.8
323 K, 13900 kPa, x1 = 0.0002628	670.57 ± 5
323 K, 14400 kPa, x1 = 0.0003178	685.43 ± 4.2
333 K, 12900 kPa, x1 = 9.49e-05	500.8 ± 8.2
333 K, 13500 kPa, x1 = 0.0001511	537.09 ± 3.4
333 K, 13900 kPa, x1 = 0.0002093	558.17 ± 9.5
333 K, 14400 kPa, x1 = 0.0002622	581.45 ± 3.8
333 K, 14800 kPa, x1 = 0.0003278	597.96 ± 4.6
343 K, 13400 kPa, x1 = 9.77e-05	425.4 ± 5.7
343 K, 13700 kPa, x1 = 0.0001344	441.9 ± 7.8
343 K, 14000 kPa, x1 = 0.0001772	457.97 ± 6.3
343 K, 14300 kPa, x1 = 0.0002091	473.49 ± 12
343 K, 14600 kPa, x1 = 0.0002392	488.4 ± 11
353 K, 13600 kPa, x1 = 0.0001134	366.46 ± 6.3
353 K, 14000 kPa, x1 = 0.0001546	384.26 ± 8.7
353 K, 14400 kPa, x1 = 0.0002019	402 ± 7.2
353 K, 14700 kPa, x1 = 0.0002432	415.16 ± 6.5
353 K, 15000 kPa, x1 = 0.0002821	428.15 ± 6.7

CCCCNC(=O)C(=O)NCCCC [N,N'-dibutyloxalamide] + O=C=O
Conditions	mass density [kg/m3]
313 K, 9100 kPa, x1 = 0.0002628	517.19 ± 0.12
313 K, 9300 kPa, x1 = 0.0005167	556.08 ± 0.13
313 K, 9500 kPa, x1 = 0.0008035	584.52 ± 0.14
313 K, 9700 kPa, x1 = 0.001136	606.4 ± 0.15
313 K, 9800 kPa, x1 = 0.001295	615.65 ± 0.15
323 K, 10300 kPa, x1 = 0.0001531	423.74 ± 0.1
323 K, 10600 kPa, x1 = 0.0003084	460.74 ± 0.11
323 K, 10900 kPa, x1 = 0.000518	495.1 ± 0.12
323 K, 11100 kPa, x1 = 0.0007008	515.81 ± 0.12
323 K, 11300 kPa, x1 = 0.000942	534.61 ± 0.13
333 K, 11600 kPa, x1 = 0.0003355	405.21 ± 0.1
333 K, 12000 kPa, x1 = 0.0005099	436.26 ± 0.1
333 K, 12300 kPa, x1 = 0.0007204	458.89 ± 0.11
333 K, 12500 kPa, x1 = 0.0009202	473.43 ± 0.11
333 K, 12700 kPa, x1 = 0.001115	487.42 ± 0.12
343 K, 12100 kPa, x1 = 0.0003508	352.31 ± 0.08
343 K, 12500 kPa, x1 = 0.000503	374.67 ± 0.09
343 K, 12800 kPa, x1 = 0.000639	391.64 ± 0.09
343 K, 13000 kPa, x1 = 0.0007821	402.95 ± 0.1
343 K, 13200 kPa, x1 = 0.0009026	414.22 ± 0.1
353 K, 12600 kPa, x1 = 0.0003735	322.59 ± 0.08
353 K, 13100 kPa, x1 = 0.0005294	344.33 ± 0.08
353 K, 13500 kPa, x1 = 0.0006999	362.01 ± 0.09
353 K, 13800 kPa, x1 = 0.0008396	375.36 ± 0.09
353 K, 14000 kPa, x1 = 0.0009729	384.26 ± 0.09
